Data published in PubChem BioAssay (NCI).
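Results reflect a 48-hour exposure of cells in 96-well plates to compound at five concentrations. TGI denotes the concentration required for complete inhibition of growth.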

Legend:
Test in all cases: NCI tumour cell line growth inhibition, 48 h
[1] = tested on: MOLT-4 leukemia
[2] = tested on: SN12K1 renal
[3] = tested on: K-562 leukemia
[4] = tested on: SNB-19 CNS
[5] = tested on: SK-MEL-2 melanoma
[6] = tested on: HCC-2998 colon
[7] = tested on: EKVX NSCLC
[8] = tested on: SF-268 CNS
[9] = tested on: KM20L2 colon
[10] = tested on: UACC-257 melanoma
[11] = tested on: SF-295 CNS
[12] = tested on: IGROV1 ovarian
[13] = tested on: CCRF-CEM leukemia
[14] = tested on: HCT-116 colon
[15] = tested on: SNB-75 CNS
[16] = tested on: NCI-H522 lung
[17] = tested on: UACC-62 melanoma
[18] = tested on: U251 CNS
[19] = tested on: NCI-H460 lung
[20] = tested on: XF 498 CNS
[21] = tested on: HCT-15 colon
[22] = tested on: SW-620 colon
[23] = tested on: RXF 393 renal
[24] = tested on: HT29 colon
[25] = tested on: HOP-62 NSCLC
[26] = tested on: OVCAR-3 ovarian
[27] = tested on: KM12 colon
[28] = tested on: M19-MEL melanoma
[29] = tested on: LOX IMVI melanoma
[30] = tested on: DLD-1 colon
[31] = tested on: SN12C renal
[32] = tested on: A549 NSCLC
[33] = tested on: DMS 273 small cell lung
[34] = tested on: A498 renal
[35] = tested on: SNB-78 CNS
[36] = tested on: OVCAR-5 ovarian
[37] = tested on: CAKI-1 renal
[38] = tested on: RPMI-8226 leukemia
[39] = tested on: SK-MEL-28 melanoma
[40] = tested on: COLO 205 colon
[41] = tested on: HL-60(TB) leukemia
[42] = tested on: HOP-92 NSCLC
[43] = tested on: HOP-18 NSCLC
[44] = tested on: DMS 114 small cell lung
[45] = tested on: UO-31 renal
[46] = tested on: NCI/ADR-RES ovarian
[47] = tested on: MCF7 breast
[48] = tested on: P388/ADR leukemia
[49] = tested on: SF-539 CNS
[50] = tested on: SK-MEL-5 melanoma
[51] = tested on: NCI-H226 lung
[52] = tested on: OVCAR-8 ovarian
[53] = tested on: MALME-3M melanoma
[54] = tested on: P388 leukemia
[55] = tested on: SK-OV-3 ovarian
[56] = tested on: OVCAR-4 ovarian
[57] = tested on: NCI-H23 lung
[58] = tested on: M14 melanoma
[59] = tested on: SR leukemia
[60] = tested on: LXFL 529 NSCLC
[61] = tested on: TK-10 renal
[62] = tested on: RXF-631 renal
[63] = tested on: ACHN renal
[64] = tested on: 786-0 renal

With `CC(=O)NC(Cc1ccsc1)C(=O)O` (stereo unspecified) the TGI [1] was > 100 µM, the TGI [2] was > 100 µM and the TGI [3] was > 100 µM. For the same compound, the TGI [4] was > 100 µM, the TGI [5] was > 100 µM and the TGI [6] was > 100 µM. The TGI [7] was > 100 µM, the TGI [8] was > 100 µM and the TGI [9] was > 100 µM. The TGI [10] was > 100 µM, the TGI [11] was > 100 µM and the TGI [12] was > 100 µM. For the same compound, the TGI [13] was > 100 µM, the TGI [14] was > 100 µM and the TGI [15] was > 100 µM. The TGI [16] was > 100 µM, the TGI [17] was > 100 µM and the TGI [18] was > 100 µM. For the same compound, the TGI [19] was > 100 µM, the TGI [20] was > 100 µM and the TGI [21] was > 100 µM. The TGI [22] was > 100 µM, the TGI [23] was > 100 µM and the TGI [24] was > 100 µM. The TGI [25] was > 100 µM, the TGI [26] was > 100 µM and the TGI [27] was > 100 µM. For the same compound, the TGI [28] was > 100 µM, the TGI [29] was > 100 µM and the TGI [30] was > 100 µM. For the same compound, the TGI [31] was > 100 µM, the TGI [32] was > 100 µM and the TGI [33] was > 100 µM. For the same compound, the TGI [34] was > 100 µM, the TGI [35] was > 100 µM and the TGI [36] was > 100 µM. The TGI [37] was > 100 µM, the TGI [38] was > 100 µM and the TGI [39] was > 100 µM. The TGI [40] was > 100 µM, the TGI [41] was > 100 µM and the TGI [42] was > 100 µM. For the same compound, the TGI [43] was > 100 µM, the TGI [44] was > 100 µM and the TGI [45] was > 100 µM. For the same compound, the TGI [46] was > 100 µM, the TGI [47] was > 100 µM and the TGI [48] was > 100 µM. The TGI [49] was > 100 µM, the TGI [50] was > 100 µM and the TGI [51] was > 100 µM. For the same compound, the TGI [52] was > 100 µM, the TGI [53] was > 100 µM and the TGI [54] was > 100 µM. The TGI [55] was > 100 µM, the TGI [56] was > 100 µM and the TGI [57] was > 100 µM.
In the case of `O=Cc1ccc(CCl)cc1`, the TGI [1] is reported as > 100 µM, the TGI [3] is reported as > 100 µM and the TGI [58] is reported as 33.4 µM. For the same compound, the TGI [4] was 29.4 µM, the TGI [5] was 32.2 µM and the TGI [7] was > 100 µM. The TGI [8] was 66.9 µM, the TGI [9] was 61.8 µM and the TGI [10] was 36.5 µM. The TGI [11] was 32 µM, the TGI [12] was 46.3 µM and the TGI [13] was > 100 µM. For the same compound, the TGI [14] was 29.1 µM, the TGI [59] was > 100 µM and the TGI [16] was 35.9 µM. The TGI [17] was 27.3 µM, the TGI [18] was 35.4 µM and the TGI [19] was 37.1 µM. For the same compound, the TGI [20] was 34.6 µM, the TGI [21] was 31.9 µM and the TGI [22] was 52.1 µM. For the same compound, the TGI [23] was 31 µM, the TGI [24] was 34.2 µM and the TGI [26] was 34.9 µM. The TGI [27] was 60.3 µM, the TGI [28] was 52.5 µM and the TGI [29] was 28 µM. The TGI [30] was 31.4 µM, the TGI [60] was 31.4 µM and the TGI [32] was > 100 µM. For the same compound, the TGI [61] was 45.5 µM, the TGI [33] was 38.8 µM and the TGI [34] was 85.8 µM. It also gave a TGI [35] of 47.7 µM, a TGI [36] of 38.8 µM and a TGI [39] of 32.9 µM. The TGI [62] was 14.7 µM, the TGI [40] was > 100 µM and the TGI [63] was 54 µM. For the same compound, the TGI [41] was 23.9 µM, the TGI [42] was 52.5 µM and the TGI [43] was 37.4 µM. The TGI [44] was 23.5 µM, the TGI [45] was 34.8 µM and the TGI [49] was 31.6 µM. For the same compound, the TGI [50] was 30.2 µM, the TGI [52] was 35.2 µM and the TGI [55] was 51.7 µM.
For `CC(=O)OC1COC(N2C(=O)C(=O)c3cc(Br)ccc32)C(OC(C)=O)C1OC(C)=O` (stereo unspecified), the TGI [1] was > 100 µM, the TGI [3] was > 100 µM and the TGI [58] was > 100 µM. For the same compound, the TGI [4] was > 100 µM, the TGI [5] was > 100 µM and the TGI [6] was > 100 µM. For the same compound, the TGI [7] was > 100 µM, the TGI [8] was > 100 µM and the TGI [9] was > 100 µM. For the same compound, the TGI [10] was > 100 µM, the TGI [11] was > 100 µM and the TGI [12] was > 100 µM. For the same compound, the TGI [13] was > 100 µM, the TGI [59] was > 100 µM and the TGI [15] was > 100 µM. The TGI [16] was > 100 µM, the TGI [17] was > 100 µM and the TGI [18] was > 100 µM. For the same compound, the TGI [19] was > 100 µM, the TGI [20] was > 100 µM and the TGI [21] was > 100 µM. For the same compound, the TGI [22] was > 100 µM, the TGI [23] was > 100 µM and the TGI [24] was > 100 µM. The TGI [25] was > 100 µM, the TGI [26] was > 100 µM and the TGI [27] was > 100 µM. The TGI [28] was > 100 µM, the TGI [29] was > 100 µM and the TGI [30] was > 100 µM. For the same compound, the TGI [31] was > 100 µM, the TGI [60] was > 100 µM and the TGI [32] was > 100 µM. For the same compound, the TGI [61] was > 100 µM, the TGI [33] was > 100 µM and the TGI [34] was > 100 µM. For the same compound, the TGI [35] was > 100 µM, the TGI [37] was > 100 µM and the TGI [38] was > 100 µM. For the same compound, the TGI [39] was > 100 µM, the TGI [62] was > 100 µM and the TGI [40] was > 100 µM. For the same compound, the TGI [63] was > 100 µM, the TGI [42] was > 100 µM and the TGI [43] was > 100 µM. For the same compound, the TGI [44] was > 100 µM, the TGI [45] was > 100 µM and the TGI [49] was > 100 µM. The TGI [50] was > 100 µM, the TGI [51] was > 100 µM and the TGI [52] was > 100 µM. For the same compound, the TGI [53] was > 100 µM, the TGI [64] was > 100 µM and the TGI [55] was > 100 µM. For the same compound, the TGI [56] was > 100 µM and the TGI [57] was > 100 µM.
